Source: patent US8729097B2, “Quinoline compounds as inhibitors of angiogenesis, human methionine aminopeptidase, and SIRT1, and methods of treating disorders” (The Johns Hopkins University, priority 2008, dated 2014)
Where two headings read alike, the source gives them in different places. Values belong to the compound of their own block, whether it stands above or below them.

How the values were obtained:
[1] = tested on: breast cancer cells as well as human umbilical vein endothelial cells (HUVECs); experiment: Cell proliferation assay, breast cancer cells and HUVECs; type: cell-based
Description: Cell proliferation assay was performed using several different kinds of breast cancer cells as well as human umbilical vein endothelial cells (HUVECs). […].
(§1) HCC1954 cells were grown in RPMI1640 containing 10% FBS. HUVEC were grown using the EGM-2 bullet kit (Cambrex) as per manufacturer's instructions. The cells were maintained in a humidified incubator adjusted to 5% CO2. For drug screening, 10 mM stock solutions of Johns Hopkins Drug Library were arrayed in 96-well plates and screened at a final concentration of 10 μM. The cell growth was determined using a [^3H]-thymidine incorporation assay. Cells (typically 5,000 cells/well) were seeded in 96-well plates containing 0.2 ml of growth media and allowed to adhere for 24 h. The cells were then treated with drugs for 24 h. Cells were pulsed with 1 μCi [^3H]-thymidine (MP Biomedicals, 6.7 Ci mmol^−1) for 8 h and harvested, upon trypsin treatment, onto glass fiber filters (Wallac, Turku, Finland), from which ^3H counts were determined using a Perkin Elmer MicroBeta plate reader.

[2] = tested on: Saccharomyces cerevisiae strain BY4743; experiment: Yeast growth assay (wild type, map1Δ, map2Δ); type: cell-based; details: drug on paper disc
Excerpt: Saccharomyces cerevisiae strain BY4743 (MATa/α his3Δ1/his3Δ1 leu2Δ0/leu2Δ0 lys2Δ0/LYS2) and its isogenic haploid derivatives for MetAP1 (map1Δ) and MetAP2 (map2Δ) deletion mutants were used for yeast growth assays. Drugs dissolved in DMSO were spotted onto sterile filter disks and dried before experiments. Exponentially growing yeast strains were mixed with top agar and plated on YPD (1% yeast extract/2% peptone/2% glucose) plates. The filter disks were then placed on the YPD plates containing yeasts and the incubation was continued for 48 h at 30° C.

[3] = tested on: N-terminal methionine processing of 14-3-3γ by hMetAP2; experiment: N-terminal methionine processing of 14-3-3γ in HUVEC (Western blot); type: cell-based, human; details: 10 nM
Description: 14-3-3γ is known as a substrate of eukaryotic MetAPs and the inhibition of either isotype of MetAPs was reported to increase the N-terminal methionyl form of the protein.
Cells were lysed by adding 1 volume of 2× Laemmli buffer and were then boiled for 5 min. The samples were separated by SDS-PAGE and transferred to nitrocellulose membrane (Bio-Rad).

[4] = tested on: p53 and Rb pathways in HUVECs; experiment: Western blot of p53, p21 and Rb in HUVEC; type: cell-based, human
Description: (§2) Cells were lysed by adding 1 volume of 2× Laemmli buffer and were then boiled for 5 min. The samples were separated by SDS-PAGE and transferred to nitrocellulose membrane (Bio-Rad). Proteins were detected using primary antibodies for p53 (Santa Cruz), met-14-3-3γ (Novus), p21 (Santa Cruz), Rb (Santa Cruz), MetAP2 (Hu, X. et al (2006) Proc. Natl. Acad. Sci. U.S.A. 103, 18148-18153), SirT1 (Santa Cruz), acetyl-p53-K382 (Abeam), acetyl-tubulin (Sigma), histone-H3 (Santa Cruz), acetyl-H3 (Santa Cruz) and α-tubulin (TU-02, Santa Cruz) followed by the incubation with horseradish peroxidase (HRP)-conjugated anti-mouse or anti-rabbit antibodies (Santa Cruz) and enhanced chemiluminescence (ECL, Amersham).

HUVEC [5] = experiment: Senescence associated-β-galactosidase (SA-β-gal) staining in HUVEC; type: cell-based, human
Description: Cells in 6-well plates were washed with PBS and fixed with 3% paraformaldehyde. After washing with PBS, the cells were incubated for 24 h at 37° C. (without CO2, protected from light) in freshly prepared SA-β-gal staining solution containing 1 mg/ml 5-bromo-4-chloro-3-indolyl β-D-galactopyranoside (X-gal), 5 mM potassium ferrocyanide, 5 mM potassium ferricyanide, 150 mM NaCl, 2 mM MgCl2 and 40 mM citric acid, titrated with NaH2PO4 to pH 6.0. SA-β-gal solution was then removed and the cells were washed with PBS. The stained cells were observed under a microscope.

HUVEC [6] = experiment: Endothelial cell tube formation assay; type: cell-based, human; details: Matrigel; EX527 1 μM, TNP470 10 nM
Description: HUVEC were seeded on a 96-well plate (2×10^4 cells/well) coated with Matrigel. The cells were then incubated for 16˜18 h in a humidified 5% CO2 incubator at 37° C. The cells were washed carefully with PBS once and Calcein-AM solution in PBS was then added to a final concentration of 2 μM. After incubation for an additional 30 min, the cells were washed carefully with PBS and observed under a fluorescence microscope (485 nm excitation/520 nm emission). The tube formed was quantified using AngioQuant v1.33 (The MathWorks).

HUVEC [7] = experiment: HUVEC proliferation, [3H]-thymidine incorporation assay; type: cell-based, human
Description: as §1

[8] = tested on: acetylation of p53 (K382), α-tubulin and histone-H3; experiment: Acetylation status of sirtuin substrates in HUVEC (Western blot); type: cell-based, human; details: HUVEC, 6 h or 20 h
Description: as §2

hMetAP2 = molecular target: T1, hMetAP2 (Homo sapiens, UniProt P50579); experiment: MetAP enzymatic assay, hMetAP2; type: biochemical
T1 construct: made in house
T1 sequence (P50579 whole entry): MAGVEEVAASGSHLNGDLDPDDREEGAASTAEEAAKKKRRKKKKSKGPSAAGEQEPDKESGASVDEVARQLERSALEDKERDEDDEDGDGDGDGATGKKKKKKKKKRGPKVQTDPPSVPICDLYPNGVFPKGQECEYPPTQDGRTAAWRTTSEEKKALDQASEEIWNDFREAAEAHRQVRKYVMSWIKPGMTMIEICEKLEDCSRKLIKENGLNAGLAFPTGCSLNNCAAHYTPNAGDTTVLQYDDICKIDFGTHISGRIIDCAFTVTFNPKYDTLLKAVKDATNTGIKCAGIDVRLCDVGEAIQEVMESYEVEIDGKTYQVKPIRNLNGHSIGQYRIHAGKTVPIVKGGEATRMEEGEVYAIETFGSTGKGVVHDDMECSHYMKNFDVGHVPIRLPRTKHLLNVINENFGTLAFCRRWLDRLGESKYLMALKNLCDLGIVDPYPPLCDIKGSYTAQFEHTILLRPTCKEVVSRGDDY

hMetAP1 = molecular target: T2, hMetAP1 (Homo sapiens, UniProt P53582); experiment: MetAP enzymatic assay, hMetAP1; type: biochemical
T2 construct: made in house

HFF = HFF proliferation (selectivity); type: cell-based
[9] = 72 h, valproic acid 0.1 mM, TNP-470 20 nM
[10] = Table 3, in the presence of Co^2+, read-out: hMetAP2 Co^2+ IC50
[11] = Table 3, in the presence of Mn^2+, read-out: hMetAP2 Mn^2+ IC50
[12] = Table 3, in the presence of Co^2+, read-out: hMetAP1 Co^2+ IC50
[13] = Table 3, in the presence of Mn^2+, read-out: hMetAP1 Mn^2+ IC50
[14] = Table 3, read-out: Selectivity HUVEC IC50

Structure (SMILES): CO[C@@H]1[C@H](OC(=O)NC(=O)CCl)CC[C@]2(CO2)[C@H]1[C@@]1(C)O[C@@H]1CC=C(C)C [TNP-470]
endothelial selectivity over other types of cancer cell lines [1]: around 1,000 fold | growth of MetAP-1 deletion mutant (map1Δ) ([2]; map1Δ): significantly inhibited | growth of MetAP-2 deletion mutant ([2]; map2Δ): did not affect the growth | growth of wild-type yeast ([2]; wild type): did not inhibit the yeast growth | processing of 14-3-3γ by hMetAP2 [3]: completely blocked | Rb hyperphosphorylation ([4]; 8% SDS-PAGE): inhibited its hyperphosphorylation | total amount of Rb protein ([4]; 12% SDS-PAGE): increased the total amount of Rb protein | premature senescence in HUVEC (HUVEC [5]; [9]): did not induce premature senescence | premature senescence in HUVEC (HUVEC [5]; 5 days, single compound or drug combination): did not | HUVEC tube formation (HUVEC [6]): did not inhibit tube formation

Structure (SMILES): CCOC(=O)COc1ccc([N+](=O)[O-])c2cccnc12 [Entry 5d, Ethyl 1-(5-Nitro-quinolin-8-yloxy)-acetate]
IC50 (HUVEC [7]; Table 4, read-out: HUVEC IC50): 7.3 µM

Structure (SMILES): CC(NC(=O)c1ccccc1/N=C/c1c(O)ccc2ccccc12)c1ccccc1 (centres unmarked) [sirtinol]
acetylation status of tubulin or histone-H3 [8]: induced hyper-acetylation

IC50 (hMetAP2; [10]): 1.9 µM | IC50 (hMetAP2; [11]): 0.03 µM | IC50 (hMetAP1; [12]): > 50 µM | IC50 (hMetAP1; [13]): 11.9 µM
Structure (SMILES): O=C(Nc1ccccc1)Oc1ccc(Cl)c2cccnc12 [Entry 4e, 5-Chloro-8-quinolyl-N-phenylcarbamate]
IC50 (HUVEC [7]; [14]): 2.1 µM | IC50 (HFF; Table 3): 8.8 µM

IC50 (hMetAP2; read-out: hMetAP2 Co^2+ IC50, Table 2, in the presence of Co^2+): > 50 µM | IC50 (hMetAP1; read-out: hMetAP1 Co^2+ IC50, Table 2, in the presence of Co^2+): > 50 µM
Structure (SMILES): C=CCOc1ccc(Cl)c2cccnc12 [Entry 3a, 8-Allyloxy-5-chloroquinoline]

IC50 (hMetAP2; [10]): 45.7 µM | IC50 (hMetAP2; [11]): 1.8 µM | IC50 (hMetAP1; [12]): > 50 µM | IC50 (hMetAP1; [13]): > 50 µM
Structure (SMILES): O=C(Nc1cc(F)cc(F)c1)Oc1ccc(Cl)c2cccnc12 [Entry 4g, 5-Chloro-8-quinolyl-N-(3,5-difluorophenyl)-carbamate]
IC50 (HFF; Table 3): 16.1 µM

premature senescence in HUVEC (HUVEC [5]; [9]): induced premature senescence | reversibility of senescence (HUVEC [5]; 72 h treatment, then fresh media for an additional 48 h): reversed their senescence state
Structure (SMILES): CCCC(CCC)C(=O)O [valproic acid]

Structure (SMILES): Cc1ccc2c([N+](=O)[O-])cc([N+](=O)[O-])c(O)c2n1 [Entry 5b, 2-Methyl-5,7-dinitro-8-hydroxy-quinoline]
IC50 (HUVEC [7]; Homo sapiens, HUVEC, Table 4, read-out: HUVEC IC50): 17.3 µM

IC50 (hMetAP2; [10]): > 50 µM | IC50 (hMetAP2; [11]): 3.1 µM | IC50 (hMetAP1; [12]): > 50 µM | IC50 (hMetAP1; [13]): > 50 µM
Structure (SMILES): O=C(Nc1ccc(F)cc1)Oc1c(Cl)cc(Cl)c2cccnc12 [Entry 4f, 5,7-Dichloro-8-quinolyl-N-(4-fluorophenyl)-carbamate]
IC50 (HFF; Table 3): 37 µM

Structure (SMILES): O=S(=O)(O)c1ccc(O)c2ncccc12 [Entry 1d]
IC50 (hMetAP2; hMetAP2 Co^2+ IC50, Table 2, in the presence of Co^2+): > 50 µM | IC50 (HUVEC [7]; Homo sapiens, HUVEC, read-out: Selectivity HUVEC IC50): > 50 µM | IC50 (HFF; Homo sapiens, HFF, Table 2): > 50 µM

Structure (SMILES): O=C(NCCCl)Oc1ccc(Cl)c2cccnc12 [Entry 4h, 5-Chloro-8-quinolyl-N-(2-chloroethyl)-carbamate]
IC50 (HUVEC [7]; [14]): 2.3 µM | IC50 (HFF; Table 3): 8.4 µM
